Here are results for 3 substances from US4879212A, “Peptide composition and method for the detection of antibodies to HTLV-III” (United Biomedical Inc., priority 1987, dated 1989).

Ends that are not written are not given here.

The test system of experiment [1] is antibodies to HTLV-III. To be noted: cited from earlier work.
In experiment [2] the test system is anti HTLV-III antibodies. The experiment can be described thus: Immunoreactivity of peptides at 1 ug per well in ELISA with pooled AIDS serum, relative to 21mer peptide. The experiment is classed as binding, human. To be noted: for Reactivity %: 1 ug per well, pooled AIDS serum sample, 21mer peptide set as 100%. An excerpt: Various peptide analogs based on the above described amino acid sequence have been prepared. These analogs and their reactivities with the anti HTLV-III antibodies present in sera of AIDS and ARC patients are described in Example 8 and Table III. The reactivity in an ELISA test for the same amount of each peptide by weight per volume was compared with the reactivity of the 21mer peptide, which was assigned a reactivity of 100.
The 35mer peptide, 19mer peptide, 11mer peptide and eight analogues of the 21mer peptide, and overlapping 19mer peptide were prepared in their amide form according to the classical Merrifield method described herein above.
The immunoreactivity of the various peptides at 1 ug per well level was tested using a pooled AIDS serum sample. The reactivity of each peptide was compared with the reactivity of the 21mer peptide which was set as 100%.

Experiment [3] concerns antibodies to HTLV-III. An excerpt:
A third problem which has plagued this area is the possibility of false negative results.
where A492 (RC) is the absorbance reading for the reactive control and A492 (NRC) is the absorbance reading for the non-reactive control.

For experiment [4], the system named is antibodies to HTLV-III. The experiment is classed as binding, human. To be noted: screened out from over 500 HTLV III positive AIDS serum specimens. The procedure: Following the procedure described in Example 1, mixtures of the 21mer peptide with the 19mer peptide with various weight ratios, from 10:1.25 to 4:1, were used as the immunoadsorbent. The wells were coated with 1 ug of the mixture. The serum samples used were two samples from patients which had been diagnosed as positive for AIDS and two samples from patients with autoimmune diseases. The two AIDS positive samples were screened out from over 500 HTLV III positive AIDS serum specimens and had been showned to be negative in ELISA using only the 21mer peptide as the immunoadsorbent.

As to “Arg-Ile-Leu-Ala-Val-Glu-Arg-Tyr-Leu-Lys-Asp-Gln-Gln-Leu--Leu-Gly-Ile-Trp-Gly-Cys-Ser-Gly-Lys-Leu-Ile-Cys-X”, in experiment [1], the “immunoreactivity (in words)” value is reported as “not as good as the deactivated virus”.
For the substance “RILAVERYKLDQQLLGIWGCSGKLICTTAVPWNAS (cysteine pairing not given here) [Peptide 17]”, in experiment [2], the Reactivity % was determined as 132.0%. Further, the “immunoreactivity (in words)” value in experiment [2] (observed from Table III) is “highest immunoreactivity”.
On to “Arg--Ile--Leu--Ala--Val--Glu--Arg--Tyr--Leu--Lys--Asp--Gln--Gln--Leu--Leu--Gly--Ile--Trp--Gly--Cys--Ser [Peptide 6]”, for which, in experiment [2], the Reactivity % is listed as 100%. Besides, in experiment [3] (12 out of 449), the “serum samples positive by Western Blot Analysis giving negative results” value is reported as “about 2.67%”. For the same substance, the “accuracy of the results” value in experiment [3] (cutoff point=0.1xA492 (RC)+1xA492 (NRC)) is listed as “about 98%”. Besides, in experiment [3] (mostly at the later stage of AIDS), the “serum samples positive by Western Blot Analysis giving negative results, out of 449” value turned out to be 12. The “ELISA result of the two AIDS positive samples” value in experiment [4] is “negative”.
